US4652638A, “3-O-acyl-4"-deoxydesmycosin derivatives” (Toyo Jozo Kabushiki Kaisha, priority 1983, dated 1987)
In brackets after ≈: the same amount, converted by molar mass. Like-named read-outs stand apart in the source and are kept apart here.

Key:
Assay in all cases: MIC (minimum inhibitory concentration)
Assay type in all cases: cell-based
[1] = test system: Staphylococcus aureus ATCC 6538P; settings: ATCC6538P
[2] = test system: Staphylococcus aureus MS353
[3] = test system: Staphylococcus aureus MS353 C36; settings: MS353C36
[4] = test system: Staphylococcus aureus MS353 A0*; settings: * clinical isolate, macrolide-resistant bacteria A group
[5] = test system: Staphylococcus aureus 0119*; settings: Staphylococcus aureus
[6] = test system: Staphylococcus aureus 0127*; settings: Staphylococcus aureus
[7] = test system: Staphylococcus epidermidis sp-al-1; settings: SPAL1
[8] = test system: Streptococcus pyogenes N.Y.5
[9] = test system: Streptococcus faecalis 1501; settings: Enterococcus faecalis
[10] = test system: Streptococcus agalaactiae 1020
[11] = test system: Sarcina lutea ATCC 9341; settings: Micrococcus luteus, ATCC9341
[12] = test system: Micrococcus flavus ATCC 10240; settings: ATCC10240
[13] = test system: Corynebacterium diphtheriae P.Y.8
[14] = test system: Bacillus subtilis ATCC 6633; settings: ATCC6633
[15] = test system: Escherichia coli NIHJ-JC2; settings: NIHJJC2
[16] = test system: Escherichia coli B
[17] = test system: Klebsiella pneumoniae ATCC 10031; settings: ATCC10031
[18] = test system: Salmonella typhosa H901; settings: Salmonella enterica
[19] = test system: Salmonella enteritidis Gaertner; settings: Salmonella enterica
[20] = test system: Shigella flexineri type 3a; settings: TYPE3A
[21] = test system: Shigella sonnei E33
[22] = test system: Proteus vulgaris OX19
[23] = test system: Serratia marcescens
[24] = test system: Pseudomonas aeruginosa IAM 1095; settings: IAM1095
[25] = test system: Streptococcus pyogenes 1022*; settings: Streptococcus pyogenes
[26] = Salmonella typhosa H901, read-out: MIC
[27] = Staphylococcus epidermidis sp-al-1, read-out: MIC
[28] = Streptococcus faecalis 1501, read-out: MIC
[29] = Streptococcus agalaactiae 1020, read-out: MIC
[30] = Sarcina lutea ATCC 9341, read-out: MIC
[31] = Micrococcus flavus ATCC 10240, read-out: MIC
[32] = Bacillus subtilis ATCC 6633, read-out: MIC
[33] = Escherichia coli NIHJ-JC2, read-out: MIC
[34] = Escherichia coli B, read-out: MIC
[35] = Klebsiella pneumoniae ATCC 10031, read-out: MIC
[36] = Salmonella enteritidis Gaertner, read-out: MIC
[37] = Pseudomonas aeruginosa IAM 1095, read-out: MIC

SMILES | MIC [1] | MIC [2] | MIC [3] | MIC [4] | MIC [5] | MIC [6] | MIC [8] | MIC [20] | MIC [21] | MIC [7, 27] | MIC [25] | MIC [9, 28] | MIC [10, 29] | MIC [11, 30] | MIC [12, 31] | MIC [14, 32] | MIC [15, 33] | MIC [16, 34] | MIC [17, 35] | MIC ([18]; TYPHOSA) | other results
CCC1OC(=O)CC(OC(=O)Cc2ccccc2)C(C)C(OC2OC(C)C(O)C(N(C)C)C2O)C(CC=O)CC(C)C(=O)C=CC(C)=CC1COC1OC(C)CC(OC)C1OC (stereo not drawn) [Example 6, 3-O-phenylacetyl-4"-deoxydesmycosin] | 0.1 µg/mL (≈ 0.114 µM) | 0.2 µg/mL (≈ 0.229 µM) | 0.1 µg/mL (≈ 0.114 µM) | > 100 µg/mL | > 100 µg/mL | > 100 µg/mL | 0.1 µg/mL (≈ 0.114 µM) | 50 µg/mL (≈ 57.2 µM) | > 100 µg/mL |  |  |  |  |  |  |  |  |  |  |  | MIC ([7]; Staphylococcus epidermidis): ≤ 0.05 µg/mL; MIC [9]; 1501: 0.4 µg/mL (≈ 0.458 µM); MIC ([10]; Streptococcus, 1020): 0.1 µg/mL (≈ 0.114 µM); MIC [11]: ≤ 0.05 µg/mL; MIC ([12]; Micrococcus flavus): ≤ 0.05 µg/mL; MIC [13]: ≤ 0.05 µg/mL; MIC ([14]; Bacillus subtilis): 0.1 µg/mL (≈ 0.114 µM); MIC ([15]; Escherichia coli): > 100 µg/mL; MIC ([16]; Escherichia coli): > 100 µg/mL; MIC ([17]; Klebsiella pneumoniae): 25 µg/mL (≈ 28.6 µM); MIC [18, 26]: > 100 µg/mL; MIC ([19]; ENTERITIDIS): > 100 µg/mL; MIC [22]: 50 µg/mL (≈ 57.2 µM); MIC [23]: > 100 µg/mL; MIC ([24]; Pseudomonas aeruginosa): > 100 µg/mL
CCC1OC(=O)CC(OC(C)=O)C(C)C(OC2OC(C)C(O)C(N(C)C)C2O)C(C)CC(C)C(=O)C=CC(C)=CC1COC1OC(C)CC(OC)C1OC (stereo not drawn) [Example 7, 3-O-acetyl-19-deformyl-4"-deoxydesmycosin] | 0.4 µg/mL (≈ 0.52 µM) | 0.2 µg/mL (≈ 0.26 µM) | 0.2 µg/mL (≈ 0.26 µM) | > 100 µg/mL | > 100 µg/mL | > 100 µg/mL | 0.1 µg/mL (≈ 0.13 µM) | > 100 µg/mL | > 100 µg/mL | 0.1 µg/mL (≈ 0.13 µM) | > 100 µg/mL | 3.1 µg/mL (≈ 4.03 µM) | 0.8 µg/mL (≈ 1.04 µM) | ≤ 0.05 µg/mL | ≤ 0.05 µg/mL | 0.1 µg/mL (≈ 0.13 µM) | > 100 µg/mL | > 100 µg/mL | 25 µg/mL (≈ 32.5 µM) | > 100 µg/mL | MIC [19, 36]: > 100 µg/mL; MIC ([22]; read-out: MIC): 100 µg/mL (≈ 130 µM); MIC ([23]; read-out: MIC): > 100 µg/mL; MIC [24, 37]: > 100 µg/mL
CCC(=O)OC1CC(=O)OC(CC)C(COC2OC(C)CC(OC)C2OC)C=C(C)C=CC(=O)C(C)CC(C)C(OC2OC(C)C(O)C(N(C)C)C2O)C1C (stereo not drawn) [Example 8, 3-O-propionyl-19-deformyl-4"-deoxydesmycosin] | 0.4 µg/mL (≈ 0.51 µM) | 0.4 µg/mL (≈ 0.51 µM) | 0.2 µg/mL (≈ 0.255 µM) | > 100 µg/mL | > 100 µg/mL | > 100 µg/mL | 0.1 µg/mL (≈ 0.128 µM) | 100 µg/mL (≈ 128 µM) | > 100 µg/mL | 0.1 µg/mL (≈ 0.128 µM) | > 100 µg/mL | 3.1 µg/mL (≈ 3.95 µM) | 0.4 µg/mL (≈ 0.51 µM) | ≤ 0.05 µg/mL | ≤ 0.05 µg/mL | 0.1 µg/mL (≈ 0.128 µM) | > 100 µg/mL | 100 µg/mL (≈ 128 µM) | 12.5 µg/mL (≈ 15.9 µM) | > 100 µg/mL | MIC [19, 36]: > 100 µg/mL; MIC ([22]; read-out: MIC): 100 µg/mL (≈ 128 µM); MIC ([23]; read-out: MIC): > 100 µg/mL; MIC [24, 37]: > 100 µg/mL
CCC1OC(=O)CC(OC(=O)c2ccccc2)C(C)C(OC2OC(C)C(O)C(N(C)C)C2O)C(C)CC(C)C(=O)C=CC(C)=CC1COC1OC(C)CC(OC)C1OC (stereo not drawn) [Example 9, 3-O-benzoyl-19-deformyl-4"-deoxydesmycosin] | 0.2 µg/mL (≈ 0.24 µM) | 0.2 µg/mL (≈ 0.24 µM) | 0.1 µg/mL (≈ 0.12 µM) | > 100 µg/mL | > 100 µg/mL | > 100 µg/mL | ≤ 0.05 µg/mL | > 100 µg/mL | > 100 µg/mL | ≤ 0.05 µg/mL | > 100 µg/mL | 1.6 µg/mL (≈ 1.92 µM) | 0.2 µg/mL (≈ 0.24 µM) | ≤ 0.05 µg/mL | ≤ 0.05 µg/mL | 0.2 µg/mL (≈ 0.24 µM) | > 100 µg/mL | > 100 µg/mL | 25 µg/mL (≈ 30 µM) | > 100 µg/mL | MIC [19, 36]: > 100 µg/mL; MIC ([22]; read-out: MIC): 100 µg/mL (≈ 120 µM); MIC ([23]; read-out: MIC): > 100 µg/mL; MIC [24, 37]: > 100 µg/mL
CCC1OC(=O)CC(OC(=O)Cc2ccccc2)C(C)C(OC2OC(C)C(O)C(N(C)C)C2O)C(C)CC(C)C(=O)C=CC(C)=CC1COC1OC(C)CC(OC)C1OC (stereo not drawn) [Example 10, 3-O-phenylacetyl-19-deformyl-4"-deoxydesmycosin] | 0.1 µg/mL (≈ 0.118 µM) | 0.1 µg/mL (≈ 0.118 µM) | 0.1 µg/mL (≈ 0.118 µM) | > 100 µg/mL | > 100 µg/mL | > 100 µg/mL | ≤ 0.05 µg/mL | 25 µg/mL (≈ 29.5 µM) | > 100 µg/mL |  |  |  |  |  |  |  |  |  |  |  | MIC ([7]; Staphylococcus epidermidis): ≤ 0.05 µg/mL; MIC [9]; 1501: 3.1 µg/mL (≈ 3.66 µM); MIC ([10]; Streptococcus, 1020): 0.4 µg/mL (≈ 0.473 µM); MIC [11]: ≤ 0.05 µg/mL; MIC ([12]; Micrococcus flavus): ≤ 0.05 µg/mL; MIC [13]: ≤ 0.05 µg/mL; MIC ([14]; Bacillus subtilis): 0.2 µg/mL (≈ 0.236 µM); MIC ([15]; Escherichia coli): > 100 µg/mL; MIC ([16]; Escherichia coli): > 100 µg/mL; MIC ([17]; Klebsiella pneumoniae): 12.5 µg/mL (≈ 14.8 µM); MIC [18, 26]: > 100 µg/mL; MIC ([19]; ENTERITIDIS): > 100 µg/mL; MIC [22]: 100 µg/mL (≈ 118 µM); MIC [23]: > 100 µg/mL; MIC ([24]; Pseudomonas aeruginosa): > 100 µg/mL
